Test results from patent US11224601B1, “Compounds that inhibits MCL-1 protein” (priority 2017, dated 2022).
Read-outs that look alike come from different tables or passages of the source.

What was measured:
[1] = biological target: recombinant human Mcl-1 (Mcl-1/Bim interaction) (Homo sapiens (Human), UniProt Q07820); test: biochemical; assay type: binding; settings: cell free Mcl-1:Bim TR-FRET
Experimental: Cell free Mcl-1:Bim Affinity Assay (Mcl-1 HTRF)
The inhibition of the Mcl-1/Bim interaction was measured using a time-resolved fluorescence resonance energy transfer (TR-FRET) assay. The recombinant human Mcl-1 (C-terminally 6×His tagged Mcl-1 containing residues 171-327) was generated at Amgen Inc (Thousand Oaks, Calif.). A biotinylated peptide derived from human Bim (residues 51-76) was purchased from CPC Scientific (San Jose, Calif.). The TR-FRET assay was conducted in a 384-well white OptiPlate™ (PerkinElmer, Waltham, Mass.) in a total volume of 40 μL. The reaction mixture contained 0.1 nM Mcl-1(171-327), 0.05 nM biotin-Bim(51-76), 0.05 nM LANCE® Eu-W1024 Anti-6×His (PerkinElmer), 0.072 nM Streptavidin-Xlent (Cisbio, Bedford, Mass.), and serially diluted test compounds in the binding buffer of 20 mM Hepes, pH 7.5, 150 mM NaCl, 0.016 mM Brij® 35, and 1 mM dithiothreitol. Test compounds were pre-incubated with Mcl-1(171-327) and biotin-Bim (51-76) for 60 min before addition of the detection mixture (LANCE® Eu-W1024 Anti-6×His and Streptavidin-Xlent). The reaction plates were further incubated overnight and then were read on an Envision® multimode reader (PerkinElmer). Fluorescence signals were measured at 620 nm (40-nm bandwidth) and 665 nm (7.5-nm bandwidth) with a 60 μs delay after excitation at 320 nm (75-nm bandwidth). The signal ratio at 665/620 nm corresponded to the Mcl-1/Bim interaction and was used in all data analyses. The IC50 values of test compounds were determined from duplicate data by analyzing competition curves using a four-parameter sigmoidal model in GraphPad Prism (GraphPad Software, San Diego, Calif.) or in Genedata Screener® (Genedata, Basel, Switzerland).

[2] = test system: OPM-2 human multiple myeloma cell line; test: Cell Viability Assay (OPM-2 10 FBS), CellTiter-Glo; assay type: cell-based
Experimental: Cell Viability Assay (OPM-2 10 FBS)
The human multiple myeloma cell line, OPM-2, was cultured in complete growth medium containing RPMI 1640 and 10% fetal bovine serum (FBS). Cells were seeded into 384-well plates at 3000 cells/well density in complete growth medium containing 10% FBS, and incubated for 16 h with serially diluted test compounds in a 37° C. incubator with 5% CO2. Cell viability was tested using CellTiter-Glo® assay (Promega, Madison, Wis.) according to the manufacturer recommendations. Luminescence was determined using an EnVision® Multilabel plate reader 25 min after the addition of detection reagent. IC50 values were then calculated with Xlfit using a logistical 4-parameter fit model in GraphPad Prism (GraphPad Software, San Diego, Calif.) or in Genedata Screener® (Genedata, Basel, Switzerland).

[3] = Homo sapiens, OPM-2, 16 h, read-out: OPM-2 10% FBS IC50 IP (μM), OPM-2 cells, 10% FBS, 16 h, CellTiter-Glo

Chain of recombinant human Mcl-1 (Mcl-1/Bim interaction) (Q07820 171-327): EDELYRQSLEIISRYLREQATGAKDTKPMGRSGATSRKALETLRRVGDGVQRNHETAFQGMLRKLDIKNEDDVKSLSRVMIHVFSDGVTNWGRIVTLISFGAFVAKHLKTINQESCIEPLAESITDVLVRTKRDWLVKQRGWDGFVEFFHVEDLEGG

For `CO[C@]1(CN2CCN3CCN(C(C)=O)C[C@@H]3C2)/C=C/C[C@H](C)[C@@H](C)S(=O)(=O)NC(=O)c2ccc3c(c2)N(C[C@@H]2CC[C@H]21)C[C@@]1(CCCc2cc(Cl)ccc21)CO3` (stereo in doubt) [Example 218], the IC50 ([1]; read-out: Mcl-1 HTRF IC50) was 0.142 nM and the IC50 [2, 3] was 0.092 µM.

Compound `CO[C@]1(C(=O)N(C)C)/C=C/C[C@H](C)[C@@H](C)S(=O)(=O)NC(=O)c2ccc3c(c2)N(C[C@@H]2CC[C@H]21)C[C@@]1(CCCc2cc(Cl)ccc21)CO3` [Example 177, (1S,3′R,6′R,7′R,8′E,11′S,12′R)-6-chloro-7′-methoxy-N,N,11′,12′-tetramethyl-15′-oxo-3,4-dihydro-2H-spiro[naphthalene-1,22′-[20]oxa[13]thia[1,14]diazatetracyclo[14.7.2.0˜3,6˜.0˜19,24˜]pentacosa[8,16,18,24]tetraene]-7′-carboxamide 13′,13′-dioxide] has an IC50 ([1]; read-out: Mcl-1 HTRF IC50) of 0.153 nM and an IC50 [2, 3] of 0.615 µM.

In the case of “(1S,3′R,6′R,7′R,11′S,12′R)-6-chloro-7′- hydroxy-11′,12′-dimethyl-7′-(1-methyl-4- piperidinyl)-3,4-dihydro-2H,15′H- spiro[naphthalene-1,22′- [20]oxa[13]thia[1,14]diazatetracyclo [14.7.2.0~3,6~.0~19,24~]pentacosa[16,18,24] trien]-15′-one 13′,13′-dioxide [Example 100382]”, the IC50 ([1]; read-out: Mel-1 HTRF IC50) is reported as 0.471 nM and the IC50 ([2]; read-out: OPM-2 10% FBS IC50 IP, OPM-2 cells, 10% FBS, 16 h, CellTiter-Glo) is reported as 0.312 µM.

With `COCCO[C@@]1(CN2CCN3CCCC[C@@H]3C2)/C=C/C[C@H](C)[C@@H](C)S(=O)(=O)NC(=O)c2ccc3c(c2)N(C[C@@H]2CC[C@H]21)C[C@@]1(CCCc2cc(Cl)ccc21)CO3` [Example 151, (1S,3′R,6′R,7′S,8′E,11′S,12′R)-6-chloro-7′-(2-methoxyethoxy)-11′,12′-dimethyl-7′-((9aR)-octahydro-2H-pyrido[1,2-a]pyrazin-2-ylmethyl)-3,4-dihydro-2H,15′H-spiro[naphthalene-1,22′-[20]oxa[13]thia[1,14]diazatetracyclo[14.7.2.0˜3,6˜.0˜19,24˜]pentacosa[8,16,18,24]tetraen]-15′-one 13′,13′-dioxide] the IC50 ([1]; read-out: Mcl-1 HTRF IC50) was 0.843 nM and the IC50 [2, 3] was 0.462 µM.

Work on `CO[C@@]1(CN2CCN3CCOC[C@@H]3C2)/C=C/C[C@H](C)[C@H]2CCN(C(=O)c3ccc4c(c3)N(C[C@@H]3CC[C@H]31)C[C@@]1(CCCc3cc(Cl)ccc31)CO4)S2(=O)=O` [Example 364, (1S,3′R,6′R,7′S,8′E,11′S,12′R)-6-chloro-7′-((9aS)-hexahydropyrazino[2,1-c][1,4]oxazin-8(1H)-ylmethyl)-7′-methoxy-11′-methyl-3,4-dihydro-2H,16′H-spiro[naphthalene-1,23′-[21]oxa[27]thia[1,15]diazapentacyclo[15.7.2.1˜12,15˜.0˜3,6˜.0˜20,25˜]heptacosa[8,17,19,25]tetraen]-16′-one 27′,27′-dioxide] yielded an IC50 ([1]; read-out: Mcl-1 HTRF IC50) of 192 nM and an IC50 [2, 3] of over 33.3 µM.

`CC[C@@H]1CC/C=C/[C@@](CN2CCN3CCCC[C@@H]3C2)(OC)[C@@H]2CC[C@H]2CN2C[C@@]3(CCCc4cc(Cl)ccc43)COc3ccc(cc32)C(=O)N(C)S1(=O)=O` [Example 33, (1S,3′R,6′R,7′R,8′E,12′R)-6-chloro-12′-ethyl-7′-methoxy-14′-methyl-7′-((9aR)-octahydro-2H-pyrido[1,2-a]pyrazin-2-ylmethyl)-3,4-dihydro-2H,15′H-spiro[naphthalene-1,22′-[20]oxa[13]thia[1,14]diazatetracyclo[14.7.2.0˜3,6˜.0˜19,24˜]pentacosa[8,16,18,24]tetraen]-15′-one 13′,13′-dioxide] gave an IC50 ([1]; read-out: Mcl-1 HTRF IC50) of 8.25 nM.

Work on `C[C@@H]1[C@@H](C)C/C=C/[C@@](O)(CN2CCOC[C@@H]2Cn2ccnc2)[C@@H]2CC[C@H]2CN2C[C@@]3(CCCc4cc(Cl)ccc43)COc3ccc(cc32)C(=O)NS1(=O)=O` [Example 100, (1S,3′R,6′R,7′S,8′E,11′S,12′R)-6-chloro-7′-hydroxy-7′-(((3S)-3-(1H-imidazol-1-ylmethyl)-4-morpholinyl)methyl)-11′,12′-dimethyl-3,4-dihydro-2H,15′H-spiro[naphthalene-1,22′-[20]oxa[13]thia[1,14]diazatetracyclo[14.7.2.0˜3,6˜.0˜19,24˜]pentacosa[8,16,18,24]tetraen]-15′-one 13′,13′-dioxide] yielded an IC50 ([1]; read-out: Mcl-1 HTRF IC50) of 0.188 nM.

`CO[C@@]1(CN2CCN3CCN(C(C)=O)C[C@@H]3C2)/C=C/C[C@H](C)[C@@H](C)S(=O)(=O)NC(=O)c2ccc3c(c2)N(C[C@@H]2CC[C@H]21)C[C@@]1(CCCc2cc(Cl)ccc21)CO3` (single isomer, unassigned) [Example 225] was tested, and the IC50 ([1]; read-out: Mcl-1 HTRF IC50) was 0.087 nM.

With `CO[C@]1(CN2CCN3CCN(C(C)=O)C[C@@H]3C2)/C=C/C[C@H](C)[C@@H](C)S(=O)(=O)NC(=O)c2ccc3c(c2)N(C[C@@H]2CC[C@H]21)C[C@@]1(CCCc2cc(Cl)ccc21)CO3` (single isomer, unassigned) [Example 229] the IC50 ([1]; read-out: Mcl-1 HTRF IC50) was 0.619 nM.

`CC(C)N(CCO)C[C@]1(O)/C=C/C[C@H](C)[C@@H](C)S(=O)(=O)NC(=O)c2ccc3c(c2)N(C[C@@H]2CC[C@H]21)C[C@@]1(CCCc2cc(Cl)ccc21)CO3` [Example 126, (1S,3′R,6′R,7′S,8′E,11′S,12′R)-6-chloro-7′-hydroxy-7′-(((2-hydroxyethyl)(1-methylethyl)amino)methyl)-11′,12′-dimethyl-3,4-dihydro-2H,15′H-spiro[naphthalene-1,22′-[20]oxa[13]thia[1,14]diazatetracyclo[14.7.2.0˜3,6˜.0˜19,24˜]pentacosa[8,16,18,24]tetraen]-15′-one 13′,13′-dioxide] showed an IC50 ([1]; read-out: Mcl-1 HTRF IC50) of 0.627 nM.

`CO[C@@]1(CN2CCN(C3COC3)CC2)/C=C/C[C@H](C)[C@@H](C)S(=O)(=O)NC(=O)c2ccc3c(n2)N(C[C@@H]2CC[C@H]21)C[C@@]1(CCCc2cc(Cl)ccc21)CO3` [Example 19, (1S,3′R,6′R,7′S,8′E,11′S,12′R)-6-chloro-7′-methoxy-11′,12′-dimethyl-7′-((4-(3-oxetanyl)-1-piperazinyl)methyl)-3,4-dihydro-2H,15′H-spiro[naphthalene-1,22′-[20]oxa[13]thia[1,14,25]triazatetracyclo[14.7.2.0˜3,6˜.0˜19,24˜]pentacosa[8,16,18,24]tetraen]-15′-one 13′,13′-dioxide] gave an IC50 ([1]; read-out: Mcl-1 HTRF IC50) of 0.125 nM.

`C[C@@H]1[C@@H](C)C/C=C/C(O)(CN2CCN3CCCC[C@@H]3C2)[C@@H]2CC[C@H]2CN2C[C@@]3(CCCc4cc(Cl)ccc43)COc3ccc(cc32)C(=O)NS1(=O)=O` (single isomer, unassigned) [Example 242] was tested, and the IC50 ([1]; read-out: Mcl-1 HTRF IC50) was 0.249 nM.

Work on `C[C@@H]1[C@@H](C)C/C=C/[C@]2(CN(Cc3ccccc3)CCO2)[C@@H]2CC[C@H]2CN2C[C@@]3(CCCc4cc(Cl)ccc43)COc3ccc(cc32)C(=O)NS1(=O)=O` [Example 138, (1S,3′R,6′R,7′R,8′E,11′S,12′R)-4″-benzyl-6-chloro-11′,12′-dimethyl-3,4-dihydro-2H,15′H-dispiro[naphthalene-1,22′-[20]oxa[13]thia[1,14]diazatetracyclo[14.7.2.0˜3,6˜.0˜19,24˜]pentacosa[8,16,18,24]tetraene-7′,2″-[1,4]oxazinan]-15′-one 13′,13′-dioxide] yielded an IC50 ([1]; read-out: Mcl-1 HTRF IC50) of 26.7 nM.

For `C[C@@H]1[C@@H](C)C/C=C/[C@@](O)(CNC(C)(C)C)[C@@H]2CC[C@H]2CN2C[C@@]3(CCCc4cc(Cl)ccc43)COc3ccc(cc32)C(=O)NS1(=O)=O` [Example 125, (1S,3′R,6′R,7′S,8′E,11′S,12′R)-7′-((tert-butylamino)methyl)-6-chloro-7′-hydroxy-11′,12′-dimethyl-3,4-dihydro-2H,15′H-spiro[naphthalene-1,22′-[20]oxa[13]thia[1,14]diazatetracyclo[14.7.2.0˜3,6˜.0˜19,24˜]pentacosa[8,16,18,24]tetraen]-15′-one 13′,13′-dioxide], the IC50 ([1]; read-out: Mcl-1 HTRF IC50) was 6.1 nM.

With `COCC[C@@H]1[C@@H](C)C/C=C/[C@@](CN2CCN(C(C)C)[C@H](C)C2)(OC)[C@@H]2CC[C@H]2CN2C[C@@]3(CCCc4cc(Cl)ccc43)COc3ccc(cc32)C(=O)NS1(=O)=O` [Example 12, (1S,3′R,6′R,7′R,8′E,11′S,12′R)-6-chloro-7′-methoxy-12′-(2-methoxyethyl)-11′-methyl-7′-(((3R)-3-methyl-4-(1-methylethyl)-1-piperazinyl)methyl)-3,4-dihydro-2H,15′H-spiro[naphthalene-1,22′-[20]oxa[13]thia[1,14]diazatetracyclo[14.7.2.0˜3,6˜.0˜19,24˜]pentacosa[8,16,18,24]tetraen]-15′-one 13′,13′-dioxide] the IC50 ([1]; read-out: Mcl-1 HTRF IC50) was 0.072 nM.

`CCO[C@]1(CN2CCN3CCCC[C@@H]3C2)/C=C/C[C@H](C)[C@@H](CCOC)S(=O)(=O)NC(=O)c2ccc3c(c2)N(C[C@@H]2CC[C@H]21)C[C@@]1(CCCc2cc(Cl)ccc21)CO3` [Example 15, (1S,3′R,6′R,7′R,8′E,11′S,12′R)-6-chloro-7′-ethoxy-12′-(2-methoxyethyl)-11′-methyl-7′-((9aR)-octahydro-2H-pyrido[1,2-a]pyrazin-2-ylmethyl)-3,4-dihydro-2H,15′H-spiro[naphthalene-1,22′-[20]oxa[13]thia[1,14]diazatetracyclo[14.7.2.0˜3,6˜.0˜19,24˜]pentacosa[8,16,18,24]tetraen]-15′-one 13′,13′-dioxide] gave an IC50 ([1]; read-out: Mcl-1 HTRF IC50) of 0.119 nM.

In the case of `CO[C@]1(CN2CCN3CCN(C(C)=O)C[C@@H]3C2)/C=C/C[C@H](C)[C@@H](C)S(=O)(=O)NC(=O)c2ccc3c(c2)N(C[C@@H]2CC[C@H]21)C[C@@]1(CCCc2cc(Cl)ccc21)CO3` (single isomer, unassigned) [Example 230], the IC50 ([1]; read-out: Mcl-1 HTRF IC50) is reported as 0.051 nM.
